Experimental data as given in patent publication US20180116849A1, “SYSTEMS AND METHODS FOR DETERMINING FAILURE OF INTRAGASTRIC DEVICES” (Obalon Therapeutics, Inc., priority 2015, published 2018).
“Also recorded” adds a separate entry of the source. Counter-ions that a name gives are not always drawn. Values belong to the compound of their own block, whether it stands above or below them.

Assays:
[1] = cited from earlier work; for Solubility in water: The Merck Index
[2] = Colour, fluorescence or emission of the dye; type: physicochemical; conditions: dyes identified as indicator for balloon rupture
Method: Experiments were conducted to identify appropriate dyes that may be incorporated into their gastric balloon device to function as an indicator for balloon rupture. The characteristics of the dyes considered for selection included the following: acceptable toxicology profile, acceptable solubility, intensely absorbing (high color intensity), stable in the gastric environment, and stable during excretion so as to be visually identified by the patient or a caregiver.

rat = conditions: cited from earlier work
[3] = Tables 4 and 5; cited from earlier work
[4] = after the consumption of asparagus; cited from earlier work
[5] = Tables 4 and 5; cited from earlier work; remark: listed apart in the source
[6] = cited from earlier work; for Urine color produced: humans / patients exposed to the dye; for Side-effect of turning urine a color: drugs that may be a source of false positives for balloon leakage
patients = conditions: The Merck Index; cited from earlier work
[7] = Meng et al. 2013, cited from earlier work
mice = conditions: The Merck Index; cited from earlier work
[8] = The Merck Index; cited from earlier work

Compound: Cc1cc2nc3c(=O)[nH]c(=O)nc-3n(C[C@H](O)[C@H](O)[C@H](O)CO)c2cc1C [B vitamins (e.g. Riboflavin), Riboflavin]
Solubility ([1]; water): Solubility: 1 g in 3 L g in 3 L water

Compound: CCN(Cc1cccc(S(=O)(=O)O)c1)c1ccc(C(=C2C=CC(=[N+](CC)Cc3cccc(S(=O)(=O)O)c3)C=C2)c2ccc(O)cc2S(=O)(=O)[O-])cc1 [Fast Green FCF]
Emission colour of dye identified as suitable [2]: green emission
Solubility in alcohols (in words) ([1]; alcohols): Very soluble in water,
Solubility in other organic solvents (in words) ([1]; other organic solvents): alcohols, insoluble in other
Solubility in water (in words) ([1]; water): Very soluble in water,
LD50 (rat) (rat; rat, in vivo): LD50 (rat) > 2 g/kg;
Toxicology (in words) [3]: may cause eye injury

Compound: O=C(O)c1cc(O)c2c(c1)[C@H]([C@H]1c3cc(C(=O)O)cc(O)c3C(=O)c3c(O[C@@H]4O[C@H](CO)[C@@H](O)[C@H](O)[C@H]4O)cccc31)c1cccc(O[C@@H]3O[C@H](CO)[C@@H](O)[C@H](O)[C@H]3O)c1C2=O [Sennoside A]
Solubility in water (in words) ([1]; water): insoluble in water.

Compound: O=C(O)C1CSSC1 [Asparagusic Acid]
Urine odor [4]: characteristic odor to urine

Compound: Cc1cc2nc3c(=O)[nH]c(=O)nc-3n(C)c2cc1C [Lumiflavine]
Solubility (in words, solvent not stated) [1]: poor solubility
Solubility in water (in words) ([1]; water): Very sparingly soluble in
Colour / fluorescence (Chemical Properties) [5]: Green fluorescence
Urine color produced [6]: blue-green urine
Toxicology (in words) [3]: None

Compound: CC(C)c1cccc(C(C)C)c1O [propofol]
Side-effect of turning urine a color [6]: green colored urine

Compound: CO[C@H]1/C=C/O[C@@]2(C)Oc3c(C)c(O)c4c(O)c(c(/C=N/N5CCN(C)CC5)c(O)c4c3C2=O)NC(=O)/C(C)=C\C=C\[C@H](C)[C@H](O)[C@@H](C)[C@@H](O)[C@@H](C)[C@H](OC(C)=O)[C@@H]1C [rifampin]
Side-effect of turning urine a color [6]: red

Compound: COc1ccccc1OCC(O)COC(N)=O (stereo not drawn) [Methocarbamol, reference compound]
Toxicology: tolerability in patients (patients): Generally well-
Water soluble ([1]; @ 20 ° C.): Water soluble 2.5 g/ g/100 mL

Emission colour of dye identified as suitable [2]: red emission
Compound: O=C(O)C1=C/C(=C/C=[N+]2/c3cc(O)c(OC4OC(CO)[C@@H](O)C(O)C4O)cc3CC2C(=O)[O-])CC(C(=O)O)N1 (stereo in doubt) [betanin]

Compound: CC[C@H](C)C(=O)O[C@H]1C[C@H](O)C=C2C=C[C@H](C)[C@H](CC[C@@H](O)C[C@@H](O)CC(=O)O)[C@H]21 [pravastatin]
Side-effect of turning urine a color [6]: blue green

Compound: CN(C)c1ccc2nc3ccc(N(C)C)cc3[s+]c2c1.[Cl-] [methylene blue]
Urine color produced [6]: blue-green discoloration of their urine; also recorded: blue-green color
Conversion on passage through the gastrointestinal tract ([7]; gastrointestinal tract): reduced to leukomethylene blue

Compound: COc1cccc2c1C(=O)c1c(O)c3c(c(O)c1C2=O)C[C@@](O)(C(C)=O)C[C@@H]3O[C@H]1C[C@H](N)[C@H](O)[C@H](C)O1 [Daunorubicin]
Side-effect of turning urine a color [6]: red

Compound: Betalain [Betalain (including betanin)]
Colour / fluorescence (Chemical Properties) [5]: Colored Red

Compound: O=C(O)c1cc(O)c2c(c1)[C@@H]([C@H]1c3cc(C(=O)O)cc(O)c3C(=O)c3c(O[C@@H]4O[C@H](CO)[C@@H](O)[C@H](O)[C@H]4O)cccc31)c1cccc(O[C@@H]3O[C@H](CO)[C@@H](O)[C@H](O)[C@H]3O)c1C2=O [Sennoside B]
Solubility in water compared with Sennoside A ([1]; water, Merck): Sennoside B is more

Compound: Nc1ccc(/N=N/c2ccccc2)c(N)n1 [phenazopyridine]
Side-effect of turning urine a color [6]: red

Compound: CN(C)CCC=C1c2ccccc2CCc2ccccc21 [Amitriptyline Hydrochloride, reference compound]
Solubility in chloroform (in words) ([1]; chloroform, salt): Salt is freely soluble
Solubility in water (in words) ([1]; water): Salt is freely soluble
LD50 (rats) (rat; rats, The Merck Index): 380 mg/kg
LD50 (mice) (mice): 350 mg/kg

Compound: COc1ccc2[nH]c([S+]([O-])Cc3ncc(C)c(OC)c3C)nc2c1 (stereo not drawn) [Omeprazole]
Side-effect of turning urine a color [6]: blue green

Compound: CN(C)c1ccc2c(c1)Sc1cc(N(C)C)ccc1N2 [Leukomethylene blue]
Excretion in urine ([7]; urine): excreted mostly unaltered

Compound: CCC(=O)O[C@@H](O[P@](=O)(CCCCc1ccccc1)CC(=O)N1C[C@H](C2CCCCC2)C[C@H]1C(=O)O)C(C)C [fosinopril]
Side-effect of turning urine a color [6]: blue green

Compound: Cc1cc2nc3[nH]c(=O)[nH]c(=O)c3nc2cc1C [Lumichrome]
Solubility (in words, solvent not stated) [1]: poor solubility
Solubility in hot water (in words) ([1]; hot water): Sparingly soluble in hot water
Colour / fluorescence (Chemical Properties) [5]: Blue fluorescence
Urine color produced [6]: blue-green urine
Toxicology (in words) [3]: None

Emission colour of dye identified as suitable [2]: blue emission
Compound: Nc1nc(N)c2nc(-c3ccccc3)c(N)nc2n1 [Triamterene, reference compound]
Toxicology: tolerability in patients (patients): Generally well-
Solubility in water [1]: 1 part soluble in 1000 part soluble in 1000 parts water

Compound: O=C1/C(=C2\Nc3ccc(S(=O)(=O)[O-])cc3C2=O)Nc2ccc(S(=O)(=O)[O-])cc21.[Na+].[Na+] [Indigo carmine]
Emission colour of dye identified as suitable [2]: blue emission
Solubility in water [1]: 1.0 g per 100 mL of water
pH indicator-blue at pH [8]: pH indicator-blue at pH < 11
LD50 (rat, oral) (rat; rat, oral, Baker MSDS sheet): oral) = 2 g/kg (Baker
